Data as given in patent publication US11820766B2, “Monoacylglycerol lipase modulators” (Janssen Pharmaceutica NV, priority 2018, dated 2023).
Where a name gives a salt, the structure may show the parent alone.

Biological target: T1, human MGL from HeLa cells (Homo sapiens, UniProt Q99685)
T1 construct: combining endogenously expressed MGL from HeLa cells with test compounds; endogenous in cells; host or cells: HeLa cells / cell homogenates
T1 sequence (Q99685 1-303): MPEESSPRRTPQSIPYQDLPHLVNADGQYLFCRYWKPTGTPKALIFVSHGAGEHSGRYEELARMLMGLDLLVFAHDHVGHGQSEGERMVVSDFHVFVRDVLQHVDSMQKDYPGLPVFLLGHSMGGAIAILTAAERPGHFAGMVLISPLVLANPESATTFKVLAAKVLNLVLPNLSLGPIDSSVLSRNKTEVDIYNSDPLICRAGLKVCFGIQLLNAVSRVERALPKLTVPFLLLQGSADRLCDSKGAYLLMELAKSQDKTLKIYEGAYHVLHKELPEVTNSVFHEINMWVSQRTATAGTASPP
Test: In vitro MGL activity assay: [glycerol-1,3-3H]-oleyl glycerol cleavage by MGL from HeLa cells
Assay type: biochemical
Settings: 300 nM [Glycerol-1,3-3H]-oleyl glycerol, one hour
Source text: MGL is the predominant hydrolase in HeLa cells/cell homogenates.

| IC50 [µM] | SMILES |
| --- | --- |
| 0.0145 | C[C@H]1c2nn(C)c(-c3cc(F)c(F)c(F)c3)c2CCN1C(=O)c1n[nH]c2ncccc12 [Example 426, [(7S)-2,7-Dimethyl-3-(3,4,5-trifluorophenyl)-5,7-dihydro-4H-pyrazolo[3,4-c]pyridin-6-yl]-(1H-pyrazolo[3,4-b]pyridin-3-yl)methanone] |
| 0.0286 | C[C@H]1c2nn(C)c(-c3cc(F)c(F)c(F)c3)c2CCN1C(=O)c1nn(C)c2ncccc12 [Example 427, [(7S)-2,7-Dimethyl-3-(3,4,5-trifluorophenyl)-5,7-dihydro-4H-pyrazolo[3,4-c]pyridin-6-yl]-(1-methylpyrazolo[3,4-b]pyridin-3-yl)methanone] |
| 0.023 | C[C@H]1c2nn(C)c(-c3cc(F)c(F)c(F)c3)c2CCN1C(=O)c1n[nH]c2ncc(F)cc12 [Example 428, [(7S)-2,7-Dimethyl-3-(3,4,5-trifluorophenyl)-5,7-dihydro-4H-pyrazolo[3,4-c]pyridin-6-yl]-(5-fluoro-1H-pyrazolo[3,4-b]pyridin-3-yl)methanone.TFA salt] |
| 0.412 | C[C@H]1c2nn(C)c(-c3cc(F)c(F)c(F)c3)c2CCN1C(=O)c1nccc2cn(C)nc12 [Example 429, [(7S)-2,7-Dimethyl-3-(3,4,5-trifluorophenyl)-5,7-dihydro-4H-pyrazolo[3,4-c]pyridin-6-yl]-(2-methylpyrazolo[3,4-c]pyridin-7-yl)methanone] |
| 0.0561 | C[C@H]1c2nn(C)c(-c3cc(F)c(F)c(F)c3)c2CCN1C(=O)c1n[nH]c2cnccc12 [Example 430, [(7S)-2,7-Dimethyl-3-(3,4,5-trifluorophenyl)-5,7-dihydro-4H-pyrazolo[3,4-c]pyridin-6-yl]-(1H-pyrazolo[3,4-c]pyridin-3-yl)methanone] |
| 0.0953 | C[C@H]1c2nn(C)c(-c3cc(F)c(F)c(F)c3)c2CCN1C(=O)c1nn(C)c2cnccc12 [Example 431, [(7S)-2,7-Dimethyl-3-(3,4,5-trifluorophenyl)-5,7-dihydro-4H-pyrazolo[3,4-c]pyridin-6-yl]-(1-methylpyrazolo[3,4-c]pyridin-3-yl)methanone.TFA salt] |
| 0.274 | C[C@H]1c2nn(C)c(-c3cc(F)c(F)c(F)c3)c2CCN1C(=O)c1nccc2cn[nH]c12 [Example 432, [(7S)-2,7-Dimethyl-3-(3,4,5-trifluorophenyl)-5,7-dihydro-4H-pyrazolo[3,4-c]pyridin-6-yl]-(1H-pyrazolo[3,4-c]pyridin-7-yl)methanone] |
| 0.104 | C[C@H]1c2nn(C)c(-c3cc(F)c(F)c(F)c3)c2CCN1C(=O)c1nccc2cnn(C)c12 [Example 433, [(7S)-2,7-Dimethyl-3-(3,4,5-trifluorophenyl)-5,7-dihydro-4H-pyrazolo[3,4-c]pyridin-6-yl]-(1-methylpyrazolo[3,4-c]pyridin-7-yl)methanone] |
| 0.277 | C[C@H]1c2nn(C)c(-c3cc(F)c(F)c(F)c3)c2CCN1C(=O)c1cncc2cn[nH]c12 [Example 434, [(7S)-2,7-Dimethyl-3-(3,4,5-trifluorophenyl)-5,7-dihydro-4H-pyrazolo[3,4-c]pyridin-6-yl]-(1H-pyrazolo[4,3-c]pyridin-7-yl)methanone] |
| 0.0402 | C[C@H]1c2nn(C)c(-c3cc(F)c(F)c(F)c3)c2CCN1C(=O)c1n[nH]c2ccncc12 [Example 435, [(7S)-2,7-Dimethyl-3-(3,4,5-trifluorophenyl)-5,7-dihydro-4H-pyrazolo[3,4-c]pyridin-6-yl]-(1H-pyrazolo[4,3-c]pyridin-3-yl)methanone] |
| 0.175 | C[C@H]1c2nn(C)c(-c3cc(F)c(F)c(F)c3)c2CCN1C(=O)c1n[nH]c2cccnc12 [Example 436, [(7S)-2,7-Dimethyl-3-(3,4,5-trifluorophenyl)-5,7-dihydro-4H-pyrazolo[3,4-c]pyridin-6-yl]-(1H-pyrazolo[4,3-b]pyridin-3-yl)methanone] |
| 0.187 | C[C@H]1c2nn(C)c(-c3cc(F)c(F)c(F)c3)c2CCN1C(=O)c1nnc2ccccn12 [Example 437, [(7S)-2,7-Dimethyl-3-(3,4,5-trifluorophenyl)-5,7-dihydro-4H-pyrazolo[3,4-c]pyridin-6-yl]-([1,2,4]triazolo[4,3-a]pyridin-3-yl)methanone] |
| 0.513 | C[C@H]1c2nn(C)c(-c3cc(F)c(F)c(F)c3)c2CCN1C(=O)c1cccc2nncn12 [Example 438, [(7S)-2,7-Dimethyl-3-(3,4,5-trifluorophenyl)-5,7-dihydro-4H-pyrazolo[3,4-c]pyridin-6-yl]-([1,2,4]triazolo[4,3-a]pyridin-5-yl)methanone] |
| 9.27 | C[C@H]1c2nn(C)c(-c3cc(F)c(F)c(F)c3)c2CCN1C(=O)c1ccc2nncn2c1 [Example 439, [(7S)-2,7-Dimethyl-3-(3,4,5-trifluorophenyl)-5,7-dihydro-4H-pyrazolo[3,4-c]pyridin-6-yl]-([1,2,4]triazolo[4,3-a]pyridin-6-yl)methanone] |
| 0.865 | C[C@H]1c2nn(C)c(-c3cc(F)c(F)c(F)c3)c2CCN1C(=O)c1ccc2nnc(C(F)F)n2c1 [Example 440, [3-(Difluoromethyl)-[1,2,4]triazolo[4,3-a]pyridin-6-yl]-[(7S)-2,7-dimethyl-3-(3,4,5-trifluorophenyl)-5,7-dihydro-4H-pyrazolo[3,4-c]pyridin-6-yl]methanone] |
| 0.0241 | C[C@H]1c2nn(C)c(-c3cc(F)c(F)c(F)c3)c2CCN1C(=O)c1nnn2ccccc12 [Example 441, [(7S)-2,7-Dimethyl-3-(3,4,5-trifluorophenyl)-5,7-dihydro-4H-pyrazolo[3,4-c]pyridin-6-yl]-(triazolo[1,5-a]pyridin-3-yl)methanone] |
| 0.0439 | Cc1nn2ncccc2c1C(=O)N1CCc2c(nn(C)c2-c2cc(F)c(F)c(F)c2)[C@@H]1C [Example 442, [(7S)-2,7-Dimethyl-3-(3,4,5-trifluorophenyl)-5,7-dihydro-4H-pyrazolo[3,4-c]pyridin-6-yl]-(2-methylpyrazolo[1,5-b]pyridazin-3-yl) methanone] |
| 0.0124 | Cc1cnn2ncc(C(=O)N3CCc4c(nn(C)c4-c4cc(F)c(F)c(F)c4)[C@@H]3C)c2c1 [Example 443, [(7S)-2,7-Dimethyl-3-(3,4,5-trifluorophenyl)-5,7-dihydro-4H-pyrazolo[3,4-c]pyridin-6-yl]-(5-methylpyrazolo[1,5-b]pyridazin-3-yl) methanone] |
| 2.38 | Cc1ccnn2nc(C3CC3)c(C(=O)N3CCc4c(nn(C)c4-c4cc(F)c(F)c(F)c4)[C@@H]3C)c12 [Example 444, (2-Cyclopropyl-4-methyl-pyrazolo[1,5-b]pyridazin-3-yl)-[(7S)-2,7-dimethyl-3-(3,4,5-trifluorophenyl)-5,7-dihydro-4H-pyrazolo[3,4-c]pyridin-6-yl]methanone] |
| 0.525 | Cc1cnn2nc(C3CC3)c(C(=O)N3CCc4c(nn(C)c4-c4cc(F)c(F)c(F)c4)[C@@H]3C)c2c1 [Example 445, (2-Cyclopropyl-5-methyl-pyrazolo[1,5-b]pyridazin-3-yl)-[(7S)-2,7-dimethyl-3-(3,4,5-trifluorophenyl)-5,7-dihydro-4H-pyrazolo[3,4-c]pyridin-6-yl]methanone] |
| 0.0341 | Cc1nn2ccnc(C)c2c1C(=O)N1CCc2c(nn(C)c2-c2cc(F)c(F)c(F)c2)[C@@H]1C [Example 446, (2,4-Dimethylpyrazolo[1,5-a]pyrazin-3-yl)-[(7S)-2,7-dimethyl-3-(3,4,5-trifluorophenyl)-5,7-dihydro-4H-pyrazolo[3,4-c]pyridin-6-yl] methanone] |
| 0.392 | Cc1nccn2nc(C3CC3)c(C(=O)N3CCc4c(nn(C)c4-c4cc(F)c(F)c(F)c4)[C@@H]3C)c12 [Example 447, (2-Cyclopropyl-4-methyl-pyrazolo[1,5-a]pyrazin-3-yl)-[(7S)-2,7-dimethyl-3-(3,4,5-trifluorophenyl)-5,7-dihydro-4H-pyrazolo[3,4-c]pyridin-6-yl]methanone] |
| 0.113 | C[C@H]1c2nn(C)c(-c3cc(F)c(F)c(F)c3)c2CCN1C(=O)c1cnn2cccnc12 [Example 448, [(7S)-2,7-Dimethyl-3-(3,4,5-trifluorophenyl)-5,7-dihydro-4H-pyrazolo[3,4-c]pyridin-6-yl]-pyrazolo[1,5-a]pyrimidin-3-yl-methanone] |
| 0.049 | Cc1nn2cccnc2c1C(=O)N1CCc2c(nn(C)c2-c2cc(F)c(F)c(F)c2)[C@@H]1C [Example 449, [(7S)-2,7-Dimethyl-3-(3,4,5-trifluorophenyl)-5,7-dihydro-4H-pyrazolo[3,4-c]pyridin-6-yl]-(2-methylpyrazolo[1,5-a]pyrimidin-3-yl)methanone] |
| 0.172 | Cc1ccnc2c(C(=O)N3CCc4c(nn(C)c4-c4cc(F)c(F)c(F)c4)[C@@H]3C)cnn12 [Example 450, [(7S)-2,7-Dimethyl-3-(3,4,5-trifluorophenyl)-5,7-dihydro-4H-pyrazolo[3,4-c]pyridin-6-yl]-(7-methylpyrazolo[1,5-a]pyrimidin-3-yl) methanone] |
| 0.199 | Cc1cnc2c(C(=O)N3CCc4c(nn(C)c4-c4cc(F)c(F)c(F)c4)[C@@H]3C)cnn2c1 [Example 451, [(7S)-2,7-Dimethyl-3-(3,4,5-trifluorophenyl)-5,7-dihydro-4H-pyrazolo[3,4-c]pyridin-6-yl]-(6-methylpyrazolo[1,5-a]pyrimidin-3-yl)methanone] |
| 0.276 | C[C@H]1c2nn(C)c(-c3cc(F)c(F)c(F)c3)c2CCN1C(=O)c1ccc2nccn2n1 [Example 452, [(7S)-2,7-Dimethyl-3-(3,4,5-trifluorophenyl)-5,7-dihydro-4H-pyrazolo[3,4-c]pyridin-6-yl]-imidazo[1,2-b]pyridazin-6-yl-methanone] |
